Six compounds from patent US8129359B2, “Composition and method for treating post-surgical pain” (Ethicon, Inc., priority 2004, dated 2012) can be followed below.

Series [1] has as its system Male Sprague Dawley rats. In words: Brennan surgical pain model (mechanical allodynia by von Frey filaments, mechanical hyperalgesia by pin-prick test). The series is classed as in vivo, rat. As to conditions: for Efficacy for reduction of post-surgical pain at a surgical wound site: in the oxidized regenerated cellulose-based system, MPE greater than 30 percent considered efficacious. The procedure:
In order to evaluate the analgesic efficacy of the composition containing oxidized regenerated cellulose particles dry blended with an NSAID powder (diclofenac sodium), the Brennan surgical pain model was used (Characterization of a rat model of incisional pain, Brennan, T. J., et al., Pain: 64 (1996); 493-501). The model was performed as follows. Male Sprague Dawley rats weighing 250-300 grams were used throughout the experiment. Prior to surgery, each animal was habituated to the testing environment and a baseline response to Semmes-Weinstein (von Frey) filaments was established. Animals were anesthetized using a fresh mixture of xylazine and ketamine containing 100 mg ketamine/ml and 20 mg xylazine/ml. Each animal was injected intramuscularly with 1 ml/kg to achieve surgical anesthesia. The left hind paw was aseptically prepared and a 1 cm incision through the skin and fascia was made on the plantar surface of the hind paw, extending from the ankle distally. The middle digital tendon was isolated and crushed using mosquito hemostats for 20 seconds. Following surgery animals were tested for mechanical sensitivity at 4, 24, 48, 72 and 96 hours following surgery.
Ten rats were evaluated in each of the following groups:
Group 1. Control group: all animals were given intraperitoneal (IP) injections of saline (1 ml/kg) 1 hour before testing for mechanical allodynia and hyperalgesia.
This equates to a total of 1 mg of diclofenac sodium or approximately 4 mg/kg for a 250 g animal.
Group 3: Immediately post-tendon crush, a single dose (20 mg of micronized oxidized regenerated cellulose with an approximate particle size of 20-25 microns blended with […]) was mixed with 100 microliters of a sterile saline solution. The composition was then applied to the site of the crushed tendon.
This equates to a total of 0.5 mg of diclofenac sodium or approximately 2 mg/kg for a 250 g animal. […]
This equates to a total of 2.0 mg of diclofenac sodium or approximately 8 mg/kg for a 250 g animal.
The pin-prick test was used to assess mechanical hyperalgesia. Briefly, a blunted safety pin was used to gently tent the plantar skin of each hind paw without breaking the skin. A stopwatch was used to measure the withdrawal time following this stimulus. Increased withdrawal time (in seconds) was interpreted as mechanical hyperalgesia.
Mechanical sensitivity or mechanical allodynia from each time point was normalized against the negative control group and against each individual animal's pre-surgical mechanical sensitivity. Mechanical sensitivity was assessed using a procedure described by Chaplan et al. (J. Neurosci. Methods 1994, 53: 55-63). A series of von Frey filaments of varying rigidity strength (typically eight filaments in the series) were applied to the plantar surface of the hind paw ipsilateral to the ligations with just enough force to bend the filament. […] A positive allodynic response consists of lifting the affected paw followed immediately by licking or shaking of the paw. The order and frequency with which the filaments were applied was determined using the Dixon up-down method. Testing was initiated with the middle filament of the series with subsequent filaments being applied in consecutive fashion, ascending or descending, depending on whether a negative or positive response, respectively, was obtained with the initial filament.
Results are expressed as percent of Maximal Potential Efficacy (% MPE).

Series [2] is described as follows: Pharmacokinetic evaluation of diclofenac release in a rat model (plasma and incision-site tissue, LC/MS/MS). The series is classed as in vivo. As for the experimental part: Pharmacokinetic studies in a rat model were conducted to determine the rate of diclofenac release from the composition. Male Sprague Dawley rats (four rats per time point per group) were anesthetized with isoflurane and subjected to a single surgical incision on the plantar surface of the left hind paw. The medial tendon was exposed by blunt dissection and subjected to a 20 second clamp using a mosquito hemostat.
In Group 1 the incision was sutured closed following manipulation of the tendon. The rats were administered an intraperitoneal injection of 5 mg/kg Diclofenac (as sodium salt, saline vehicle) 4 hours and 23 hours post-surgery. Blood and tissue samples were harvested at 0.25, 1, 4 and 6 hours after the second dose.
In Group 2, oxidized regenerated cellulose (Surgicel® Fibrillar absorbable hemostat) was implanted between the tendon and the metatarsals and 0.5 mg of Diclofenac (as sodium salt, saline vehicle) was instilled directly into the wound site and the incision was sutured closed. Blood samples were taken at 0.25,1, 4, 6, 24 and 48 hours post surgery.
Blood was harvested into K-EDTA tubes via cardiac puncture while the rats were anesthetized with isoflurane. Rats were terminated immediately after the blood draw by CO2 inhalation, and the skin, muscle fascia and tendon of the left hind paw incision site were harvested. The contralateral tissue of the right hind paw was harvested and retained separately.
Blood samples were centrifuged to yield plasma, the resulting plasma as well as tissue samples were sent to Covance, Madison Wis. for LC/MS/MS analysis of diclofenac. Briefly, the analytical method involves extracting ˜50 mg of tissue or 50 uL of plasma w/acetonitrile; the residue of the ACN extract is analyzed by tandem mass spectroscopy. The dynamic ranges of the plasma and tissue assays were 25 to 12,500 ng/mL and 25 to 12,500 ng/g, respectively.

Where [3] appears, read: Micronized (20–25 um) oxidized regenerated cellulose, dry/powder, 1 mg.
The mark [4] stands for this setting: Surgicel Fibrillar absorbable hemostat 6 × 6 mm, solution, 0.5 mg.
[5] abbreviates: Surgicel Fibrillar absorbable hemostat 6 × 6 mm, solution, 1.0 mg.

Entries after “also recorded” stand apart in the source; their conditions may differ. Counter-ions that a name gives are not always drawn.

Consider `O=C(O)Cc1ccccc1Nc1c(Cl)cccc1Cl` [DCF Free acid, 2-((2,6-ichlorophenyl)amino)benzeneacetic acid], for which the “Efficacy for reduction of post-surgical pain at a surgical wound site” value (“Efficacy for reduction” below) in series [1] is given as “surprisingly efficacious”. Also, the “Diclofenac concentrations at the surgical site” value in series [2] (after local administration of composition containing oxidized regenerated cellulose and diclofenac, FIG. 3A) is reported as “remaining relatively high; also recorded: remained relatively high”. Besides, in series [2] (intraperitoneal injection of diclofenac solution, FIG. 3A), the “Tissue concentrations of diclofenac” value is listed as “rapid decline”. Moreover, the “Plasma concentrations of diclofenac, local administration compared with systemic administration” value in series [2] (local administration from the composition, FIG. 3B) is listed as “much lower”.

For the compound `O=C(O)Cc1ccccc1Nc1c(Cl)cccc1Cl` [DCF Sol'n, 2-[(2,6-dichlorophenyl)amino]-Benzeneacetic acid, monosodium salt], in series [1] (6 mm×6 mm Surgicel Fibrillar oxidized regenerated cellulose plus diclofenac sodium and saline), the Period of analgesia was 48 h. In addition, in series [1] (6 mm×6 mm Surgicel Fibrillar oxidized regenerated cellulose plus diclofenac sodium and saline, 72 hours), the “Benefit at 72 hours” value is “smaller benefit”. Besides, the “Efficacy (duration of analgesic effect)” value in series [1] (Interceed absorbable adhesion barrier 6 × 6 mm, solution, 0.5 mg) was determined as 48 h; in series [1] (Intraplantar injection, solution, 0.5 mg), 4 h; in series [1] (setting [3]), 72 h; in series [1] (Micronized (20–25 um) oxidized regenerated cellulose, solution, 1.0 mg, applied at crushed tendon), 72 h; in series [1] (Repeated IPL injec., solution, 0.5 mg), 4 h; in series [1] (setting [4]), 48 h. For the same compound, the “Efficacy (duration of analgesic effect)” value in series [1] (setting [5]) is 48 h. For the same compound, the “Significant increase in analgesic effect, through” value in series [1] (Micronized oxidized regenerated cellulose (20-25 micron) mixed with diclofenac sodium and saline) stood at 72 h. Further, the “Effect at 96 hours” value in series [1] (Micronized oxidized regenerated cellulose (20-25 micron) mixed with diclofenac sodium and saline, 96 hours) was “some effect”.

Consider `COc1ccc2c(c1)c(CC(=O)O)c(C)n2C(=O)c1ccc(Cl)cc1` [Inodmethacin Sol'n, indomethacin], for which, in series [1] (setting [4]), the “Efficacy (duration of analgesic effect)” value was “Ineffective”. Besides, in series [1], the “Efficacy for reduction” value is on record as “neither indomethacin nor ketoprofen is efficacious”.

Consider `CC(C(=O)O)c1cccc(C(=O)c2ccccc2)c1` (stereo not drawn) [Ketoprofen Sol'n, ketoprofen], for which the “Efficacy (duration of analgesic effect)” value in series [1] (setting [4]) is listed as “Ineffective”. The “Efficacy for reduction” value in series [1] is “neither indomethacin nor ketoprofen is efficacious”.

For the compound `Cc1cccc(C)c1NC(=O)C1CCCCN1C` (stereo not drawn) [Mepiv Sol'n, mepivacaine hydrochloride], the “Efficacy (duration of analgesic effect)” value was 4 h in series [1] (Intraplantar injection, solution, 1.0 mg); “Ineffec-” in series [1] (setting [3]); 72+ Hrs in series [1] (Repeated IPL injec., solution, 1.0 mg); 4 Hrs effect in series [1] (setting [5]).

For the compound `COc1cccc(C2(O)CCCCC2CN(C)C)c1` (stereo not drawn) [Tramadol Sol'n, tramadol], in series [1] (Surgicel Fibrillar absorbable hemostat 6 × 6 mm, solution, 2 mg), the “Efficacy (duration of analgesic effect)” value came out at 24 h.
